Results reported in US5273989A, “3,5-disubstituted 2-isoxazolines and isoxazoles, agents containing them and their use” (Hoechst Aktiengesellschaft, priority 1990, dated 1993).
Structures can show the parent of a compound that is named as a salt. Where two headings read alike, the source gives them in different places.

How the values were obtained:
[1] = test system: NMDA receptor-channel complex; experiment: Inhibition of 3H-MK-801 binding to membranes from rat brain; conditions: preparation concentration 50 μM; 3H-MK801 1 nM
Description: 3. Inhibition of ^3 H-MK-801 binding to membranes from rat brain
Test principle: MK-801 is a non-competitive antagonist which binds to ion channels coupled to NMDA receptors (Yoneda et al., Brain Res. 499 (1989), 305). Membranes from whole brain containing preparation and ^3 H-MK-801 are incubated in the test. The binding of ^3 H-MK-801 or its displacement by preparations (antagonists) is determined by radiochemical methods.
Experimental protocol: The binding experiments are carried out by the method of Reynolds et al. (Proc. Natl. Acad. Sci. USA, 84 (1987), 7744). Membrane preparation is first carried out according to Reynolds. Test samples are then pipetted, buffer and test preparation being initially introduced, then preincubated with protein for 2 minutes, and initiated using ^3 H-MK801. The membranes are thawed at 37° C., incubated at 37° C. for 10 minutes and homogenized for 15 seconds at half the maximum speed by means of a Polytron, then used in the cool state again. The incubation medium contains: pH 7.4 Hepes buffer 20 mM, preparations in three concentrations 5 μM, 10 μM and 50 μM, membranes 500 μg/ml of test solution, ^3 H-MK801 1 nM. Incubation is carried out at room temperature (23° C.) for 60 minutes and is then stopped by filtration. For this purpose, glass fiber paper No. 32 from Schleicher and Schull, which had been soaked in 0.03% polyethyleneimine for 30 minutes on the day before the experiment are counted in 4 ml of "Packard 199™" Scintillation fluid (Frankfurt). Tritium is determined by liquid scintillation counting using a Packard 1500.
Calculation of the results: The calculation of the binding in femtomol/mg of protein over a period of 60 min. was carried out using a small calculator (HP-97). If a substance antagonizes the binding, the value decreases. Substance activities are indicated in Table 5 as percentages, i.e. in % binding compared to the control. The activity of the comparison preparation CPP (3-(+)-2-carboxypiperazin-4-ylpropyl-1-phosphonic acid) at 5 μM, 10 μM and 50 μM is always determined to check the test.

[2] = test system: NMDA-induced cramps; experiment: Inhibition of NMDA-induced cramps in the mouse; assay type: in vivo; conditions: po, 1 h
Description: 4. Inhibition of NMDA-induced-cramps in the mouse
The examples listed below show neuroprotective activity in that they antagonize the cramps induced by NMDA (N-methyl-(D)-aspartate). To this end, intravenous injections of 20-30 mg/kg of NMDA are carried out on a male NMRI (Naval Medical Research Institute) mice of 22-24 g body weight, which leads to stereotypes, clonic cramps and in the majority of cases to mortality. In order to investigate an NMDA-antagonist activity of the test substances, they are administered orally one hour before NMDA. The animals are then observed for the abovementioned symptoms for up to 60 min. The number of animals with clonic cramps and the incidence of mortality, expressed in percent change compared to the control group, is regarded as the evaluation criterion.

[3] = test system: NMDA-stimulated 3H-acetylcholine release, striatum sections; experiment: Inhibition of NMDA-stimulated 3H-acetylcholine release from striatum sections of the rat brain; assay type: cell-based; conditions: preparation concentration 10 μM, 25 μmol/l NMDA stimulus, relative to control S2/S1, read-out: Inhibition of 3H-acetylcholine release from striatum sections, Inhibition (%)
Description: 2. Inhibition of ^3 H-acetylcholine release from striatum sections of the rat brain
Test principle: For the test, fresh striatum sections from rat brain were rinsed with buffer solution in a special chamber and the release of the tritium-labeled acetylcholine was measured after stimulation with NMDA. Preparations having NMDA-antagonist action inhibit acetylcholine release.
Experimental protocol: The superfusion experiments were carried out by the method of Wichman et al. (Naunyn-Schmied. Arch. Pharmacol., 338 (1988), 623-631). Rat brain sections, 0.5 mm thick, were preincubated for 30 min in 2 ml of incubation medium which contains 0.1 μmol/l of ^3 H-choline having a specific activity of 80 Ci/mmol. In each of 6 superfusion chambers, a section was transferred and superfused for 90 min at a rate of 1.5 ml/min. 2 min fraction of the superfusate were continuously collected. Each section was superfused twice with 25 μmol/l of NMDA of two minutes each time in order to stimulate the release of acetylcholine. The first stimulus (S1) takes place between the 54th and the 56th minute and the 2nd stimulus (S2) between the 76th and 78th minute. The incubation medium contained, in mmol/l: NaCl 118, KCl 4.8, CaCl2 1.2, MgSO4 1.2, NaHCO3 25, KH2 PO4 1.2 and glucose 10. The medium was saturated with Carbogen at 37° C. The pH was adjusted to 7.4 NMDA and the novel preparations to be tested were dissolved in superfusion medium. The superfusion was carried out using Mg^2+ -free medium. Tritium from the dissolved sections and from the superfusate was determined by liquid scintillation counting using a Packard® 1900 CA (Frankfurt) at a 50% efficiency.
Calculation of the Results
Basal release and NMDA-stimulated release for S1 and S2 were expressed in %/min of each fraction (Limberger et al, Naunyn Schmied. Arch. Pharmacol. 339 (1988), 53-61).
The value for the stimulated release S2 /S1 was calculated for the control as 0.69±0.09. The value decreases if a substance, such as, for example, the NMDA receptor antagonist CPP (3-(+)-2-carboxypiperazin-4-ylpropyl-1-phosphonic acid) known from the literature inhibited the NMDA-stimulated release. The inhibition of the stimulated release by preparations was calculated in percent, relative to the control value, and is indicated in Table 4.

[4] = Toxicity (LD50) in the mouse; conditions: in vivo, iv
Source text: As the examples investigated show considerable differences in toxicity compared to the standard substances, the LD50 values are also listed in Table 6,

[5] = test system: high affinity 3H-D-aspartate absorption, synaptic vesicles (synaptosomes) from rat cortex; experiment: "High affinity" absorption of 3H-aspartate in a vesicle preparation from rat brain; assay type: biochemical; conditions: relative to control values (100%)
Description: 1. "High affinity" absorption of ^3 H-aspartate in a vesicle preparation from rat brain.
Test principle: Fresh synaptic vesicles (synaptosomes) from rat cortex are incubated with buffer solution and ^3 H-D-aspartate and ^3 H-D-aspartate in the vesicles is measured. Preparations which in comparison to control synaptosomes increase the high affinity ^3 H-D-aspartate absorption and those which prevent the loss of ^3 H-D-aspartate by reliberation are regarded as particularly interesting.
Experimental protocol: The experiments for ^3 H-D-aspartate absorption were carried out by the method of Anand et al. (Biochem. Pharmacol., 35 (1986), 1055-1057). The synaptic vesicles were dissected out of cerebral cortex from male Sprague-Dawley rats. The preparations were tested at four concentrations as double samples in parallel with control samples containing buffer. The incubation medium (pH 7.4) contains: 1.2 mM KH2 PO4, 5 mM KCl, 5 mM pyruvate, 1.2 mM glucose, 1.2 mM MgCl2, 114 mM NaCl, 25 mM NaHCO3. For the non-specific ^3 H-D-aspartate absorption, NaCl was replaced by 114 mM choline chloride and NaHCO3 by 25 mM KHCO3. An aliquot of the vesicle suspension (about 25 μg/ml of test solution) was added to the test sample which was temperature controlled at 37° C. and aerated with Carbogen (5% CO2, 95% O2) and preincubated for 2 minutes. The three minutes incubation for the amino acid absorption was started by addition of 50 μl of ^3 H-D-aspartate (specific activity 25 Ci/mmol, 10 pmol/ml of test solution). The vesicles were separated from the incubation medium by filtration and additional washing of the adhering labeled amino acids using a Titertek cell harvester (Flow Laboratories, Meckenheim). The ^3 H-D-aspartate absorption was measured by means of a liquid scintillation counter (Canberra-Packard, Model 1500, Frankfurt).
The preparation activity is indicated in percent of the specific ^3 H-D-aspartate absorption, relative to control values (100%), in Table 3. Adenosine triphosphate (ATP) was used for comparison as the standard substance (see Table 3) and at 1 mM caused a 35% increase in the ^3 H-D-aspartate absorption.

[6] = test system: CA1 pyramidal cells of the hippocampus after forebrain ischemia; experiment: Neuroprotection after forebrain ischemia in the gerbil; conditions: 50 mg/kg p.o., 15 minutes before ischemia
Description: A 5-minutes' ischemia of the forebrain with subsequent recirculation is produced in 20 male Mongolian gerbils under halothane anesthesia by bilateral closure of the corotid artery by means of aneurysm clips. 7 days later, the animals are decapitated under halothane anesthesia, the brains are fixed by immersion in Carnoy solution and the extent of neuron damage in the CA1 region of the hippocampus is determined "blind" with the aid of a 5-stage histopathological score. The test substance is administered intraperitoneally or orally 15 minutes before ischemia to each group of 10 gerbils. One ischemic control group, also of 10 animals, is treated with the respective solvents per test substance.

| SMILES | Inhibition of 3H-MK-801 binding to the NMDA receptor-channel complex, inhibition (%) [1] | inhibition at 10 µM [3] | other results |
| --- | --- | --- | --- |
| CC(C)[C@@H]1CC[C@@H](C)C[C@H]1OC(=O)CCc1cc(CNC(=O)[C@@H](N)Cc2ccccc2)on1 [Example 21, (-)-Menthyl 5-(L-phenylalanylamino)methylisoxazole-3-propionatehydrochloride] | 45% | 20% | inhibition in vivo at 50 mg/kg ([2]; 50 mg/kg p.o., one hour before NMDA i.v., change compared to control group, read-out: Inhibition of convulsions): 30%; inhibition in vivo at 50 mg/kg ([2]; read-out: Inhibition of mortality): 40%; LD50 [4]: 25 to 50 mg/kg |
| Cl.NCc1cc(CCC(=O)OCc2ccccc2)no1 [Example 5, Benzyl 5-aminomethylisoxazole-3-propionate hydrochloride] | 78% |  | Stimulation of the 3H-D-aspartate absorption, Stimulation (%) ([5]; preparation concentration 10 μM): 26% |
| O=C(O)c1cc(CNCc2ccccc2)on1 [Example 2, 5-Benzylaminomethyl-3-carboxyisoxazole] | 10% |  | Stimulation of the 3H-D-aspartate absorption, Stimulation (%) ([5]; preparation concentration 500 μM): 12% |
| CC(C)[C@H]1CC[C@H](C)C[C@@H]1OC(=O)CCc1cc(C[N+](C)(C)C)on1 [Example 19, (+)-Menthyl 5-trimethylammoniomethylisoxazole-3-propionate iodide] | 16% | 16% | Stimulation of the 3H-D-aspartate absorption, Stimulation (%) ([5]; preparation concentration 100 μM): 25%; Cell necroses (% change) ([6]; histopathological score CA1, treated versus control group): -25 % change; Behavior score (% change) ([6]; treated versus control group): 0 % change |
| CC(C)[C@@H]1CC[C@@H](C)C[C@H]1OC(=O)C1CC(C(=O)O)=NO1 (single isomer, unassigned; (-)) [Example 57, (-)-menthyl-3-carboxy-2-isoxazoline-5-yl-carboxylatedicyclohexylammonium salt] | 43% |  |  |
| O=C(O)C1CN(CCCP(=O)(O)O)CCN1 (racemic) [CPP, 3-(+)-2-carboxypiperazin-4-ylpropyl-1-phosphonic acid, reference compound] | 81% | 30% |  |
